Structures can show the parent of a compound that is named as a salt.

Tested on in the first data set: not given
Settings: not given
For the compound `CCC1(CC)c2ccccc2S(=O)(=O)N1CCCN1CCN(c2cccc3ccccc23)CC1`, the melting point (in general, the temperature of the solid-liquid transition) is 179 °C. As to `CC1(C)c2ccc([N+](=O)[O-])cc2S(=O)(=O)N1CCCN1CCN(c2cccc3ccccc23)CC1`, the melting point worked out at 203 °C. On the same count and under the same terms, next, `CC1(C)c2ccccc2S(=O)(=O)N1CCCN1CCN(c2ncccn2)CC1` (as salt: hydrochloride): 263 °C; `CC1(C)c2ccccc2S(=O)(=O)N1CCCN1CCN(c2ccc3ccccc3n2)CC1`: 63 °C. Take `COc1ccc(N2CCN(CCN3C(C)(C)c4ccccc4S3(=O)=O)CC2)cc1` (as salt: hydrochloride): the melting point worked out at 207 °C. Still for that read-out and setting: next, `CC1(C)c2ccccc2S(=O)(=O)N1CCN1CCN(c2ccccc2C#N)CC1` (as salt: hydrochloride): 228 °C. The compound `CC1(C)c2ccc(-n3cccc3)cc2S(=O)(=O)N1CCCN1CCN(c2cccc3ccccc23)CC1` (as salt: hydrochloride) yielded a melting point of 269 °C. Still for that read-out and setting: next, `CC1(C)c2ccccc2S(=O)(=O)N1CCN1CCN(c2ncnc3ccccc23)CC1` (as salt: hydrochloride): 178 °C; `CC1(C)c2ccccc2S(=O)(=O)N1CCCN1CCN(c2nc(-c3ccccc3)nc3ccccc23)CC1` (as salt: hydrochloride): 269 °C; `COc1ccccc1N1CCN(CC(O)CN2C(C)(C)c3ccccc3S2(=O)=O)CC1` (stereo not drawn): 160 °C. As for `Cc1cccc(N2CCN(CCN3C(C)(C)c4ccccc4S3(=O)=O)CC2)c1C` (as salt: hydrochloride), the melting point is 291 °C. `CC1(C)c2ccccc2S(=O)(=O)N1CCN1CCN(c2cccc3c2CCC3)CC1` (as salt: hydrochloride) displayed a melting point of 271 °C. In turn, `CC1(C)c2ccccc2S(=O)(=O)N1CCN1CCN(c2cccc3ccccc23)CC1` (as salt: hydrochloride) came in with a melting point of 282 °C. In the case of `CC1(C)c2ccccc2S(=O)(=O)N1CCCN1CCN(c2ccc(Cl)c3ccccc23)CC1`, the melting point worked out at 151 °C. Compound `Cc1ccc(C)c(N2CCN(CCCN3C(C)(C)c4ccccc4S3(=O)=O)CC2)c1` (as salt: hydrochloride) returned a melting point of 218 °C. `C=C(CN1CCN(c2cccc3ccccc23)CC1)CN1C(C)(C)c2ccccc2S1(=O)=O` returned a melting point of 193 °C.

The next data set concerns serotonin release in the cortex. The settings on record: after systemic administration; cited from earlier work.
In the case of `COc1ccc(NC(=O)c2ccc(-c3ccc(-c4noc(C)n4)cc3C)cc2)cc1N1CCN(C)CC1` [GR 127 935], the “serotonin release in the cortex” value is “reduces serotonin release”.

For another data set, the system named is serotonin release in the dorsal raphe nucleus. As to conditions: rat; together with paroxetine; cited from earlier work.
As to `COc1ccc(NC(=O)c2ccc(-c3ccc(-c4noc(C)n4)cc3C)cc2)cc1N1CCN(C)CC1` [GR 127 935], the “effect of paroxetine on serotonin release in the dorsal raphe nucleus” value was “potentiated”.

Values taken from US6346622B1, “2-substituted 1,2-benzisothiazole derivatives and their use as serotonin antagonists (5-HT1A, 5HT1B and 5-HT1D)” (Abbott Laboratories, priority 1997, dated 2002).
